In US7009051B2, “4-(2-pyridyl) piperazines having 5HT7 receptor agonist activity” (Pfizer Inc, priority 2001, dated 2006):
Counter-ions that a name gives are not always drawn.

SMILES: c1cncc(COc2cccc(N3CCNCC3)n2)c1 (as salt: HCl) [II, 1-[6-(Pyridin-3-ylmethoxy)-pyridin-2-yl]-piperazine]
- melting point: 141 to 143 °C
